According to PMC12655551, “Design, Synthesis, and Evaluation of Pyrrole-Based Selective MAO-B Inhibitors with Additional AChE Inhibitory and Neuroprotective Properties Identified via Virtual Screening” (Pharmaceuticals, 2025):
Where two headings read alike, the source gives them in different places.

Columns and labels:
[1] = target: T1, recombinant human MAO-A (hMAOA) (Homo sapiens, UniProt P21397); test: MAO-A inhibition, fluorometric Amplex UltraRed assay; type: biochemical; conditions: for inhibition at 1 µM: read-out: Inhibition Activity 1 µM MAO-A
T1 sequence (P21397 1-527): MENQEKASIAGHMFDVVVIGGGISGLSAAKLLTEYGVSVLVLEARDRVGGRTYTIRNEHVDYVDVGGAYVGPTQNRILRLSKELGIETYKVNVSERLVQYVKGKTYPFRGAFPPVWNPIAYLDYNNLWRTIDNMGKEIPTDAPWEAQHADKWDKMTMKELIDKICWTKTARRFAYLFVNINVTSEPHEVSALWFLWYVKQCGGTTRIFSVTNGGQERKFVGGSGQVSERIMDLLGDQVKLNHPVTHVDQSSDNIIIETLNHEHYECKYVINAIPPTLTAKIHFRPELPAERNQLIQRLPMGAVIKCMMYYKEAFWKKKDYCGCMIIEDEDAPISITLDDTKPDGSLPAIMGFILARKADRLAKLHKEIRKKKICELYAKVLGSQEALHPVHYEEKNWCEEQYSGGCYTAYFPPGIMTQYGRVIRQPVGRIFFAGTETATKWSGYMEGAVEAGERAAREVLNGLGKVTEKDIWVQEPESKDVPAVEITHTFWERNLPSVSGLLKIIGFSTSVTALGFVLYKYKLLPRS
Description: (§1) Monoamine oxidase (MAO) activity for both recombinant human MAO-A (hMAOA) and MAO-B (hMAOB) was assessed using a fluorometric assay based on the Amplex® UltraRed reagent. This method, originally reported by Bautista-Aguilera et al. and later adapted with minor changes by Kasabova-Angelova et al., detects hydrogen peroxide or peroxidase activity present in enzymes or biological samples. In this assay, Amplex® Red reacts in a 1:1 molar ratio with hydrogen peroxide in the presence of peroxidase, producing the red-fluorescent compound resorufin. Due to resorufin’s strong extinction coefficient (58,000 ± 5000 cm^−1·M^−1), measurements could be accurately taken using either fluorometric or spectrophotometric methods. […] The control conditions included the use of purified hMAOA or hMAOB in reaction buffer, enzyme solutions with hydrogen peroxide, and buffer alone. All the test compounds were initially prepared at a 1 µM final concentration. These compounds were combined with either hMAOA or hMAOB and loaded into a 96-well plate (with eight replicates per test compound), followed by incubation for 30 min at 37 °C in the dark. Subsequently, a 50 µL detection mix was added to each well. This mix contained Amplex® Red, horseradish peroxidase (HRP), and tyramine substrate, all prepared in a reaction buffer. As this enzymatic reaction proceeded continuously, the fluorescence signal was recorded every 30 min (at 0, 30, 60, 90, 120, and 150 min) to track enzymatic kinetics.

[2] = target: T2, recombinant human MAO-B (hMAOB) (Homo sapiens, UniProt P27338); test: biochemical; type: biochemical; conditions: 1 µM compound
T2 sequence (P27338 1-520): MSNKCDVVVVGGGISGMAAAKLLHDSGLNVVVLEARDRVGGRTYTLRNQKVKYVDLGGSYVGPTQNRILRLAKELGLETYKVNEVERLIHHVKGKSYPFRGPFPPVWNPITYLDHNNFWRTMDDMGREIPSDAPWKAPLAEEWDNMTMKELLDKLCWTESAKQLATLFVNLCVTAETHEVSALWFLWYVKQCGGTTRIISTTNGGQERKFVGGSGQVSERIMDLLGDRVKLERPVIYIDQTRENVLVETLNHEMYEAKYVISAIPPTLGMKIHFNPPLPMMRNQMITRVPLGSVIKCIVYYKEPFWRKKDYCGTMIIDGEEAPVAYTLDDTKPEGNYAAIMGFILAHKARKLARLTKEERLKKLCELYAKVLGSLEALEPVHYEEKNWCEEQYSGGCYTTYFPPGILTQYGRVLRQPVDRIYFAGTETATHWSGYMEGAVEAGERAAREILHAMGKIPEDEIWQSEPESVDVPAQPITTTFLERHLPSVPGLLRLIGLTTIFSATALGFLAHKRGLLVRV
Description: as §1

[3] = test system: isolated rat brain synaptosomes; test: 6-OHDA-induced neurotoxicity in isolated rat brain synaptosomes; type: cell-based; conditions: compound 50 µM with 6-OHDA 150 μM
Description: (§2) Two types of buffers were used for the isolation of the rat brain synaptosomes and mitochondria. Buffer A was 5 mM HEPES and 0.32 M Sucrose; Buffer B was 290 mM NaCl, 0.95 mM MgCl2 × 2H2O, 10 mM KCl, 2.4 mM CaCl2 × 2H2O, 2.1 mM NaH2PO4, 44 mM HEPES, 13 mM D-Glucose. For the gradient centrifugation, Percoll reagent was used. A stock solution of 90% Percoll was used to prepare 16%, 10% and 7.5% solutions. All the solutions were used as described below. Immediately after harvesting, synaptosomes, microsomes, and mitochondria were incubated with the exam compounds for 1 h. For assessing the possible neurotoxicity of the most MAOB active compounds, the sub-cellular fractions were incubated with 100 µM of them, and for evaluating their possible neuroprotective and antioxidant activities in different models of neurotoxicity, the sub-cellular fractions were incubated with 50µM of them. The protein measurement of all the sub-cellular fractions was made by the method of Lowry et al., 1951 [57].
The synaptosomes were prepared from rat brains by multiple sub-cellular fractionation using a Percoll gradient.
This in vitro model resembles the neurodegenerative processes occurring in PD. Dopamine metabolism and oxidation led to the formation of reactive oxygen species (ROS) and reactive quinones. These processes were catalyzed by the MAOB enzyme. They induced dopamine neurotoxicity and neurodegeneration. The synaptosomes were incubated with 150 μM 6-OHDA for 1 h.
After the incubation, the synaptosomes were centrifuged three times at 15,000× g for 1 min. MTT-test was performed to determine synaptosomal vitality by the method described by Mungarro-Menchaca et al..
The level of GSH was determined by measuring the non-protein SH-groups after precipitation of the proteins with trichloroacetic acid (TCA). The presence of thiols in the supernatant was determined using Elmman’s reagent. The resulting yellow color was measured spectrophotometrically (λ = 412 nm).

[4] = test system: isolated rat brain mitochondria; test: Toxicity of compounds alone on isolated rat brain mitochondria (MDA, GSH); type: cell-based; conditions: compound alone, 100 μM, vs non-treated mitochondria
Description: as §2
The mitochondria were prepared by multiple differential fractionation using a Percoll gradient.
After incubation of the mitochondria, 0.3 mL 0.2% TBA and 0.25 mL sulfuric acid (0.05 M) were added to stop the reaction. The tubes were maintained at 100 °C for 30 min. In the next stage, centrifugation of the tubes was carried out at 3500× g for 10 min. Assessment of the total quantity of MDA formed in each sample was measured in the supernatant at 532 nm.
After incubation of mitochondria, 0.04% DTNB was mixed with the mitochondrial suspensions in 0.1 M phosphate buffer (pH 7.4). The absorbance of the yellow product was measured at 412 nm.

Cc1ccc(C)n1C(Cc1cnc[nH]1)C(=O)O (stereo not drawn) [EM-DC-19, 2-(2,5-dimethyl-1H-pyrrol-1-yl)-3-(2H-imidazol-4-yl)propanoic acid]
IC50 [1]: > 100 µM
inhibition at 1 µM [1]: 99 ± 6.1%
inhibition at 1 µM [2]: 50 ± 7.1%
preservation of GSH level compared to toxic 6-OHDA [3]: 20%
decrease of GSH level compared to the control [4]: 25%
increase of MDA production compared to the control [4]: 50%

Cc1ccc(C)n1-c1ccc(CC(=O)O)cc1 [EM-DC-27, [4-(2,5-dimethyl-1H-pyrrol-1-yl)phenyl]acetic acid]
inhibition at 1 µM ([1]; 1 µM compound): 99 ± 7.1%
IC50 ([1]; means ± SD of three experiments, read-out: MAO-A IC50): > 100 µM
inhibition at 1 µM [2]: 50 ± 7.1%
preservation of GSH level compared to toxic 6-OHDA [3]: 20%
decrease of GSH level compared to the control [4]: 25%
increase of MDA production compared to the control [4]: 70%
